Consider two compounds from patent US10085955B2, “Methods and compositions for treatment of demyelinating diseases” (Pathologica LLC, priority 2013, dated 2018).

Assay [1] relates to MOG-induced experimental autoimmune encephalomyelitis (EAE). In words: First MOG EAE protocol (murine multiple sclerosis model). The assay is classed as in vivo, C57BL/6 mice. Conditions: first 28-day study; MGBG 30 mpk BID, fingolimod 3 mpk QD; throughout/duration of experiment. From the text:
An experimental murine model of multiple sclerosis employing a myelin oligodendrocyte glycoprotein (MOG) peptide to induce experimental autoimmune encephalomyelitis (EAE) was employed to determine the efficacy of MGBG in preventing and treating that disease. Because of its many similarities to MS, EAE is commonly used to study pathogenesis of autoimmunity, CNS inflammation, demyelination, cell trafficking, and tolerance induction. EAE is characterized by paralysis (in some models the paralysis is remitting-relapsing), CNS inflammation and demyelination. EAE is mediated primarily by dendritic cells, myelin-specific T cells (e.g. Th1 and Th17), and M1 macrophages. B cells may also play a role in some models of EAE. Body weight also tracks disease progression. EAE is induced in C57BL/6 mice by immunization with MOG35-55 or MOG1-125 in CFA emulsion followed by administration of pertussis toxin (PTX) in PBS. The emulsion provides antigen which initiates expansion and differentiation of MOG-specific autoimmune T cells. PTX enhances EAE development by providing additional adjuvant and facilitating entrance of autoimmune T cells into the CNS.
Chronic EAE develops in C57BL/6 mice after immunization with an emulsion of MOG35-55/CFA or MOG1-125/CFA followed by injection of pertussis toxin. This model is used to test the potential of compounds to prevent or mitigate EAE disease. It can be run with the compound dosed from the time of immunization (prophylactic treatment), or with the aim of reversing the course of disease and facilitating recovery by dosing the compound from the time of EAE onset (therapeutic treatment). The model uses female C57BL/6 mice of age 10 to 14 weeks at the start of the study. Typically, EAE develops 8-18 days after immunization. EAE development is usually followed for 4 weeks (28 days) after immunization.
In prophylactic studies, treatment begins before disease onset, at the time of immunization and group assignment. Mice are assigned to treatment groups in a balanced manner to achieve groups with similar distributions of body weights. Prophylactic studies assess if treatment will affect the course of disease both before and after the first clinical signs of EAE. To compensate for the stress of treatment in prophylactic treatment studies and achieve the target disease severity, EAE may be induced with a higher dose of pertussis toxin than used in therapeutic studies. The dose of pertussis toxin is based on expected stress due to dosing (route, frequency, and formulation of vehicle).
Clinically, EAE progression is scored on a scale of 0 to 5, wherein each score represents the following clinical observations:
Inflammatory foci of approximately 20 cells were counted in each H&E stained section. When inflammatory infiltrates consisted of more than 20 cells, an estimate was made of how many foci of 20 cells were present.
The demyelination score represents an estimate of demyelinated area for each section as follows:
Unless otherwise noted, statistical analysis was performed as follows: disease incidence compared using chi-square test; mean day of EAE onset, change in body weight, and number of apoptotic cells compared using 2-tailed Student's t-test; median day of EAE onset compared using Wilcoxon's survival test; mean maximum score (MMS), end score, and demyelination scores (LFB and H&E) compared using Wilcoxon's non-parametric test.
Ten week old female C57BL/6 mice weighing 18-23 g (Taconic Farms) were divided into four groups: mock immunized (n=3) and three MOG-immunized groups receiving MGBG at 30 mpk BID (as the di-HCl monohydrate with a correction factor of 1.49), fingolimod (FTY720) at 3 mpk QD with a second mock vehicle dose, or 0.9% saline vehicle BID (n=12 each). […]

Assay [2] relates to PGE2 production in carrageenan air pouch. In words: Carrageenan air pouch model. Conditions: rat pouch fluid, 3 or 24 hours post-carrageenan; naproxen 10 mg/kg, dexamethasone 1 mg/kg. The assay is classed as in vivo, Lewis rats. From the text: Injection of air subcutaneously will induce the formation of a connective tissue cavity lined with cells that resemble and function like a synovial lining. This method is commonly known as the Air Pouch Model and is a useful animal model of inflammation that can be generated in a relatively short period of time. The air pouch may be created by subcutaneous (SQ) injection of a volume of sterile air in the dorsal neck region. The model may be used to test the efficacy and potency of compounds such as polyamine analogues and polyamine biosynthesis inhibitors such as MGBG in reducing various cellular and biochemical indicators of inflammation when administered as an oral (PO) gavage administration. Healthy Male Lewis rats (Charles River Laboratories, Wilmington, Mass.) weighing between 175-200 g were used. […] A correction factor of 1.49 was used to account for the dihydrochloride salt/monohydrate form of MGBG. […] Air pouches were formed on the dorsum of the rats during the last 4 days of MGBG or vehicle administration prior to carrageenan injection. Briefly, rats were anesthetized with isoflurane, during which dorsal hair was removed and 20 mL of sterile air was injected subcutaneously into the intrascapular region. Pouches were allowed to develop for the next 4 days, with re-inflation (to maintain pouch volume) of pouches 1 day prior to carrageenan injection. One hour prior to carrageenan injection, animals were given their last dose of drug (MGBG, vehicle, naproxen, or dexamethasone). A 1% suspension of carrageenan (2 mL; FMC BioPolyer, Philadelphia, Pa.) suspended in saline was injected into the pouch cavity. At either 3 hours or 24 hours post-carrageenan injection, rats were euthanized by CO2 asphyxiation and 2.5 mL of PBS (Sigma Chemical, St. Louis, Mo.) was injected directly into the pouch. The pouch was opened with surgical scissors and the pouch fluid was collected using a transfer pipette. One aliquot was collected for measurement of total cell count with differential, and the other aliquot for PGE2 determination. […]

As to `CCCCCCCCc1ccc(CCC(N)(CO)CO)cc1` [fingolimod], the “mean clinical score (scale 0 to 5)” value in assay [1] worked out at 0. On to `COc1ccc2cc([C@H](C)C(=O)O)ccc2c1` [naproxen], for which the “production of PGE2 (inflammatory and basal levels)” value in assay [2] was “inhibited production of both inflammatory and basal levels”.
